Experimental findings from PMC10224201, “Characterization of Non-Specific Uptake and Retention Mechanisms of [^177Lu]Lu-PSMA-617 in the Salivary Glands” (Pharmaceuticals, 2023) are described below.

This test deals with T1, PSMA (PC3-PIP cells) (Homo sapiens, UniProt Q04609).
T1 construct: gene FOLH1; full length, on intact PSMA-positive PC3-PIP prostate cancer cells (PC3-Flu as PSMA-negative control)
Briefly: competition with […]Lu-PSMA-617 on cells, gamma counting. The test is classed as cell-based. The conditions noted are these: read-out: % of control binding at 9000 μM.

T1 sequence (Q04609 whole entry): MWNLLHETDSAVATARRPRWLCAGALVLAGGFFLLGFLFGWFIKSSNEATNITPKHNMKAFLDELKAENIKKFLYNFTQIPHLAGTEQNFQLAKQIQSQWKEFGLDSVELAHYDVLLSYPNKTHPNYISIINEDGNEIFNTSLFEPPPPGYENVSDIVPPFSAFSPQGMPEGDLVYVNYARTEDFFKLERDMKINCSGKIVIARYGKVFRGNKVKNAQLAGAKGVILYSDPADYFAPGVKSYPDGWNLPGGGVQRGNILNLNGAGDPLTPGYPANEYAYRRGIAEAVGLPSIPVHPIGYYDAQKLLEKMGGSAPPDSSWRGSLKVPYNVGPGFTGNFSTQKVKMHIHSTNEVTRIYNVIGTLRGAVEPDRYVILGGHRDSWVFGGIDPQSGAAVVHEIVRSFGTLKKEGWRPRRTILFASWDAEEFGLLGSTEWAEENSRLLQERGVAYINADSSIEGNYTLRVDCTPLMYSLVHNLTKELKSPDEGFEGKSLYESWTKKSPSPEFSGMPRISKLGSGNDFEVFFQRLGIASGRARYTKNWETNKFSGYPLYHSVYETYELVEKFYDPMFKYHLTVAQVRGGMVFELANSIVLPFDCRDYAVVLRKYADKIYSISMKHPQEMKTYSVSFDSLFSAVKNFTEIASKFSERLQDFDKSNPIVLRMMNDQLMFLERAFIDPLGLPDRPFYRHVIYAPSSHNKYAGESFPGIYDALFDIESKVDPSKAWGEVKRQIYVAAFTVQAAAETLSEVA

Turning to `N[C@@H](CCC(=O)O)C(=O)O` [monosodium glutamate], the remaining activity at 9000 µM worked out at 24.9 ± 3.64%.
